Earlier results as cited in patent US20210346497A1, “Methods of Treating Cancer” (Tesaro, Inc., priority 2018, published 2021).

Columns and labels:
[1] = test system: MDA-MB-436, CAPAN-1, GRANTA-519, OVCAR3, HT29, DLD-1, patient derived Ewing's sarcoma and TNBC xenograft models; conditions: BRCA-1 mutant breast, BRCA-2 mutant pancreatic, ATM-mutant mantle cell lymphoma, serous ovarian, colorectal, TNBC xenografts in mice
[2] = test system: cancer cell lines silenced for BRCA-1 or BRCA-2, or carrying BRCA-1 or BRCA-2 mutations
[3] = test system: PARP activity in various cell lines

SMILES: Cc1ccc(S(=O)(=O)O)cc1.NC(=O)c1cccc2cn(-c3ccc([C@@H]4CCCNC4)cc3)nc12 [Niraparib, (3S)-3-[4-{7-(aminocarbonyl)-2H-indazol-2-yl}phenyl]piperidine]
- activity on normal human cells (normal human cells): weak activity
- antitumor activity in vivo [1]: strong antitumor activity
- cell cycle arrest (tumor cell): arrest in the G2/M phase of the cell cycle
- anti-proliferative activity ([2]; BRCA-1/BRCA-2 silenced or mutant cancer cell lines compared to wild type counterparts): selective anti-proliferative activity
- consequence on cell cycle of BRCA-defective cells ([2]; BRCA-defective cells): cell cycle arrest in G2/M followed by apoptosis
- IC50 ([3]; read-out: IC50 of PARP activity in cells, PARP activity stimulated by DNA damage caused by hydrogen peroxide): ~4 nM
- IC90 ([3]; read-out: inhibitory concentration at 90% of control (IC90) of PARP activity in cells, PARP activity stimulated by DNA damage caused by hydrogen peroxide): ~50 nM
